Patent US20240246918A1, “COMPOUNDS AND COMPOSITIONS AS EIF4E INHIBITORS AND THE USES THEREOF” (Ribometrix, Inc., priority 2022, published 2024)

Legend:
[1] = tested on: COLO 205 colorectal tumor cells; assay: Tumor cell viability inhibition assay (CellTiter-Glo 2.0, 72 hours); format: cell-based; conditions: COLO 205 cell viability
Summary of the method: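 COLO 205 cells (1500/well, RPMI-1640 + 10% FBS) exposed for 72 h to an 11-point, 4-fold dilution series; cellular ATP read by CellTiter-Glo 2.0 luminescence. Data normalized to DMSO and maximum-inhibition controls; IC50 from 4-parameter curve fit.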

human eIF4E protein = target: T1, human eIF4E protein (Homo sapiens, UniProt P06730); assay: Biochemical competitive binding assay (TR-FRET competition, EDA-m7GDP-ATTO-647N probe); conditions: read-out: hEIF4E TR-FRET IC50
T1 construct: purchased Novus NBP-45314
Summary of the method: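 His-tagged human eIF4E (4 nM) was preincubated with Eu-anti-His antibody (2.5 nM) and added to compound (11-point, 4-fold dilutions) for 15 min. Then 5 nM EDA-m7GDP-ATTO-647N was added for 15 min, in HEPES pH 7.5, 100 mM KCl. The 665/620 TR-FRET ratio was normalized to controls, and IC50 was taken from 4-parameter fits.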

T1 sequence (P06730 whole entry): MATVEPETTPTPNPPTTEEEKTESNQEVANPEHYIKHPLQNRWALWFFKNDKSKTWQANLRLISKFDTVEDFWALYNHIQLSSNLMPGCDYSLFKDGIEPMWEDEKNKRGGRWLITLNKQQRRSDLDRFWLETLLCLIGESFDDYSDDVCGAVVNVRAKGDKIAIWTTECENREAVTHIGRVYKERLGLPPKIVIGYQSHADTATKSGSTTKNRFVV

## Cc1cc(-c2cc(Cl)ccc2OCCn2c(C)nc3c(c2=O)C[C@@H](N2CCCC[C@H]2c2cccc(C(F)(F)F)c2)CC3)c2scc(C(=O)O)c2n1 (single isomer, unassigned) [Compound 589]
[1]; Homo sapiens, COLO 205, 72 h
  IC50: > 20 µM
Human eIF4E protein
  IC50: 0.1 to 0.5 µM

## Cc1cc(-c2cc(Cl)ccc2OCCn2c(C)nc3c(c2=O)C[C@H](N2CCCC[C@@H]2c2cccc(C(F)(F)F)c2)CC3)c2scc(C(=O)O)c2n1 (single isomer, unassigned) [Compound 590]
[1]; Homo sapiens, COLO 205, 72 h
  IC50: > 20 µM
Human eIF4E protein
  IC50: 0.5 to 5 µM

## Cc1cc(-c2cc(Cl)ccc2OCCn2c(C)nc3c(c2=O)C[C@@H](N2CCC4(CC2)CC4(F)F)CC32CC2)c2scc(C(=O)O)c2n1 (single isomer, unassigned) [Compound 591]
[1]; Homo sapiens, COLO 205, 72 h
  IC50: < 5 µM
Human eIF4E protein
  IC50: < 0.1 µM

## Cc1nc2c(c(=O)n1CC#Cc1ccc(Cl)cc1-c1ccnc3c(C(=O)NS(C)(=O)=O)csc13)CC(N1CCC(OC(F)(F)F)CC1)CC2 (single isomer, unassigned) [Compound 592]
[1]; Homo sapiens, COLO 205, 72 h
  IC50: < 5 µM
Human eIF4E protein
  IC50: < 0.1 µM

## Cc1cc(-c2cc(Cl)ccc2OCCn2c(C)nc3c(c2=O)C[C@H](N2CCC(c4nc5ccc(F)cc5s4)CC2)CC3)c2scc(C(=O)O)c2n1 (single isomer, unassigned) [Compound 593]
[1]; Homo sapiens, COLO 205, 72 h
  IC50: < 5 µM
Human eIF4E protein
  IC50: < 0.1 µM

## Cc1cc(-c2cc(Cl)ccc2OCCn2c(C)nc3c(c2=O)C[C@@H](N2CCC(c4nc5ccc(F)cc5s4)CC2)CC3)c2scc(C(=O)O)c2n1 (single isomer, unassigned) [Compound 594]
[1]; Homo sapiens, COLO 205, 72 h
  IC50: < 5 µM
Human eIF4E protein
  IC50: < 0.1 µM

## Cc1cc(-c2cc(Cl)ccc2OCCn2c(C)nc3c(c2=O)C[C@H](N2CCC(Oc4ccc(F)cc4F)CC2)CC3)c2scc(C(=O)O)c2n1 (single isomer, unassigned) [Compound 595]
[1]; Homo sapiens, COLO 205, 72 h
  IC50: < 5 µM
Human eIF4E protein
  IC50: < 0.1 µM

## Cc1cc(-c2cc(Cl)ccc2OCCn2c(C)nc3c(c2=O)C[C@@H](N2CCC(Oc4ccc(F)cc4F)CC2)CC3)c2scc(C(=O)O)c2n1 (single isomer, unassigned) [Compound 596]
[1]; Homo sapiens, COLO 205, 72 h
  IC50: < 5 µM
Human eIF4E protein
  IC50: < 0.1 µM

## Cc1cc(-c2cc(Cl)ccc2OCCn2c(C)nc3c(c2=O)C[C@H](N2CCC(OC(F)(F)F)CC2)[C@@H]2C[C@H]32)c2scc(C(=O)O)c2n1 (single isomer, unassigned) [Compound 597]
[1]; Homo sapiens, COLO 205, 72 h
  IC50: < 5 µM
Human eIF4E protein
  IC50: < 0.1 µM

## Cc1cc(-c2cc(Cl)ccc2OCCn2c(C)nc3c(c2=O)C[C@@H](N2CCC(OC(F)(F)F)CC2)[C@H]2C[C@@H]32)c2scc(C(=O)O)c2n1 (single isomer, unassigned) [Compound 598]
[1]; Homo sapiens, COLO 205, 72 h
  IC50: < 5 µM
Human eIF4E protein
  IC50: < 0.1 µM

## Cc1cc(-c2cc(Cl)ccc2OCCn2c(C)nc3c(c2=O)CC(C)(N(C)CC2CC(F)(F)C2)CC3)c2scc(C(=O)O)c2n1 (single isomer, unassigned) [Compound 599]
[1]; Homo sapiens, COLO 205, 72 h
  IC50: 5 to 20 µM
Human eIF4E protein
  IC50: < 0.1 µM

## Cc1cc(-c2cc(Cl)ccc2OCCn2c(C)nc3c(c2=O)CC(C)(N(C)CC2CC(F)(F)C2)CC3)c2scc(C(=O)O)c2n1 (single isomer, unassigned) [Compound 600]
[1]
  IC50: < 5 µM
Human eIF4E protein
  IC50: < 0.1 µM

## Cc1nc2c(c(=O)n1CC#Cc1ccc(Cl)cc1-c1ccnc3c(C(=O)NS(C)(=O)=O)csc13)CC(N1CCC(OC(F)(F)F)CC1)CC2 (single isomer, unassigned) [Compound 601]
[1]
  IC50: < 5 µM
Human eIF4E protein
  IC50: < 0.1 µM

## Cc1cc(-c2cc(Cl)ccc2OCCn2c(C)nc3c(c2=O)C[C@H](N2CCC(C(F)(F)F)CC2)CC32CC2)c2scc(C(=O)O)c2n1 (single isomer, unassigned) [Compound 602]
[1]; Homo sapiens, COLO 205, 72 h
  IC50: < 5 µM
Human eIF4E protein
  IC50: < 0.1 µM

## Cc1cc(-c2cc(Cl)ccc2OCCn2c(C)nc3c(c2=O)C[C@@H](N2CCC(C(F)(F)F)CC2)CC32CC2)c2scc(C(=O)O)c2n1 (single isomer, unassigned) [Compound 603]
[1]; Homo sapiens, COLO 205, 72 h
  IC50: < 5 µM
Human eIF4E protein
  IC50: < 0.1 µM

## Cc1cc(-c2cc(Cl)ccc2OCCn2c(C)nc3c(c2=O)C[C@H](N2C[C@@H]4CC[C@H]2CC4OC(F)(F)F)CC32CC2)c2scc(C(=O)O)c2n1 (single isomer, unassigned) [Compound 604]
[1]; Homo sapiens, COLO 205, 72 h
  IC50: < 5 µM
Human eIF4E protein
  IC50: < 0.1 µM

## Cc1cc(-c2cc(Cl)ccc2OCCn2c(C)nc3c(c2=O)C[C@@H](N2C[C@@H]4CC[C@H]2CC4OC(F)(F)F)CC32CC2)c2scc(C(=O)O)c2n1 (single isomer, unassigned) [Compound 605]
[1]; Homo sapiens, COLO 205, 72 h
  IC50: < 5 µM
Human eIF4E protein
  IC50: < 0.1 µM

## Cc1cc(-c2cc(Cl)ccc2OCCn2c(C)nc3c(c2=O)C[C@H](N2C[C@H]4CC[C@@H]2CC4OC(F)(F)F)CC32CC2)c2scc(C(=O)O)c2n1 (single isomer, unassigned) [Compound 606]
[1]; Homo sapiens, COLO 205, 72 h
  IC50: < 5 µM
Human eIF4E protein
  IC50: < 0.1 µM

## Cc1cc(-c2cc(Cl)ccc2OCCn2c(C)nc3c(c2=O)C[C@@H](N2C[C@H]4CC[C@@H]2CC4OC(F)(F)F)CC32CC2)c2scc(C(=O)O)c2n1 (single isomer, unassigned) [Compound 607]
[1]; Homo sapiens, COLO 205, 72 h
  IC50: < 5 µM
Human eIF4E protein
  IC50: < 0.1 µM

## Cc1cc(-c2cc(Cl)ccc2C#CCn2c(C)nc3c(c2=O)CC(C)(N2CCCC4(C2)CC4(F)F)CC3)c2scc(C(=O)O)c2n1 (single isomer, unassigned) [Compound 608]
[1]
  IC50: < 5 µM
Human eIF4E protein
  IC50: < 0.1 µM

## Cc1cc(-c2cc(Cl)ccc2OCCn2c(C)nc3c(c2=O)C[C@@H](N2CCC[C@@H](C(F)F)C2)CC32CC2)c2scc(C(=O)O)c2n1 (single isomer, unassigned) [Compound 609]
[1]; Homo sapiens, COLO 205, 72 h
  IC50: < 5 µM
Human eIF4E protein
  IC50: < 0.1 µM

## Cc1cc(-c2cc(Cl)ccc2OCCn2c(C)nc3c(c2=O)C[C@@H](N2CCC[C@H](C(F)F)C2)CC32CC2)c2scc(C(=O)O)c2n1 (single isomer, unassigned) [Compound 610]
[1]; Homo sapiens, COLO 205, 72 h
  IC50: < 5 µM
Human eIF4E protein
  IC50: < 0.1 µM

## Cc1cc(-c2cc(Cl)ccc2OCCn2c(C)nc3c(c2=O)C[C@H](N2CCC(Oc4ccc(F)cc4F)CC2)CC32CC2)c2scc(C(=O)O)c2n1 (single isomer, unassigned) [Compound 611]
[1]; Homo sapiens, COLO 205, 72 h
  IC50: < 5 µM
Human eIF4E protein
  IC50: < 0.1 µM

## Cc1cc(-c2cc(Cl)ccc2C#CCn2c(C)nc3c(c2=O)CC(C)(N2CCCC4(C2)CC4(F)F)CC3)c2scc(C(=O)O)c2n1 (single isomer, unassigned) [Compound 612]
[1]
  IC50: 5 to 20 µM
Human eIF4E protein
  IC50: 0.1 to 0.5 µM

## Cc1cc(-c2cc(Cl)ccc2OCCn2c(C)nc3c(c2=O)C[C@@H](N2CCC(Oc4ccc(F)cc4F)CC2)CC32CC2)c2scc(C(=O)O)c2n1 (single isomer, unassigned) [Compound 613]
[1]; Homo sapiens, COLO 205, 72 h
  IC50: < 5 µM
Human eIF4E protein
  IC50: < 0.1 µM

## Cc1cc(-c2cc(Cl)ccc2C#CCn2c(C)nc3c(c2=O)CC(C)(N2CCCC4(C2)CC4(F)F)CC3)c2scc(C(=O)O)c2n1 (single isomer, unassigned) [Compound 614]
[1]
  IC50: < 5 µM
Human eIF4E protein
  IC50: < 0.1 µM

## Cc1cc(-c2cc(Cl)ccc2C#CCn2c(C)nc3c(c2=O)CC(C)(N2CCCC4(C2)CC4(F)F)CC3)c2scc(C(=O)O)c2n1 (single isomer, unassigned) [Compound 615]
[1]
  IC50: > 20 µM
Human eIF4E protein
  IC50: 0.1 to 0.5 µM

## Cc1cc(-c2cc(Cl)ccc2OCCn2c(C)nc3c(c2=O)C[C@H](N2CCC[C@@H](C(F)F)C2)CC32CC2)c2scc(C(=O)O)c2n1 (single isomer, unassigned) [Compound 616]
[1]; Homo sapiens, COLO 205, 72 h
  IC50: < 5 µM
Human eIF4E protein
  IC50: < 0.1 µM

## Cc1cc(-c2cc(Cl)ccc2OCCn2c(C)nc3c(c2=O)C[C@H](N2CCC[C@H](C(F)F)C2)CC32CC2)c2scc(C(=O)O)c2n1 (single isomer, unassigned) [Compound 617]
[1]; Homo sapiens, COLO 205, 72 h
  IC50: < 5 µM
Human eIF4E protein
  IC50: < 0.1 µM

## Cc1cc(-c2cc(Cl)ccc2OCCn2c(C)nc3c(c2=O)C[C@H](N2C[C@@H]4CC(F)(F)C[C@@H]4C2)CC32CC2)c2scc(C(=O)O)c2n1 (single isomer, unassigned) [Compound 618]
[1]; Homo sapiens, COLO 205, 72 h
  IC50: < 5 µM
Human eIF4E protein
  IC50: < 0.1 µM

## Cc1cc(-c2cc(Cl)ccc2OCCn2c(C)nc3c(c2=O)C[C@@H](N2C[C@@H]4CC(F)(F)C[C@@H]4C2)CC32CC2)c2scc(C(=O)O)c2n1 (single isomer, unassigned) [Compound 619]
[1]; Homo sapiens, COLO 205, 72 h
  IC50: < 5 µM
Human eIF4E protein
  IC50: < 0.1 µM

## Cc1cc(-c2cc(Cl)ccc2OCCn2c(C)nc3c(c2=O)CC(CN(C)C)(N2CCC(OC(F)(F)F)CC2)CC3)c2scc(C(=O)O)c2n1 (single isomer, unassigned) [Compound 620]
[1]
  IC50: < 5 µM
Human eIF4E protein
  IC50: < 0.1 µM

## Cc1cc(-c2cc(Cl)ccc2OCCn2c(C)nc3c(c2=O)CC(CN(C)C)(N2CCC(OC(F)(F)F)CC2)CC3)c2scc(C(=O)O)c2n1 (single isomer, unassigned) [Compound 621]
[1]
  IC50: > 20 µM
Human eIF4E protein
  IC50: 0.1 to 0.5 µM

## Cc1cc(-c2cc(Cl)ccc2OCCn2c(C)nc3c(c2=O)CC(CN)(N2CCC(OC(F)(F)F)CC2)CC3)c2scc(C(=O)O)c2n1 (single isomer, unassigned) [Compound 622]
[1]; Homo sapiens, COLO 205, 72 h
  IC50: > 20 µM
Human eIF4E protein
  IC50: < 0.1 µM

## Cc1cc(-c2cc(Cl)ccc2OCCn2c(C)nc3c(c2=O)CC(CN)(N2CCC(OC(F)(F)F)CC2)CC3)c2scc(C(=O)O)c2n1 (single isomer, unassigned) [Compound 623]
[1]
  IC50: > 20 µM
Human eIF4E protein
  IC50: 0.1 to 0.5 µM

## Cc1cc(-c2cc(Cl)ccc2OCCn2c(C)nc3c(c2=O)C[C@H](N2CCCC[C@@H]2C(F)(F)F)CC32CC2)c2scc(C(=O)O)c2n1 (single isomer, unassigned) [Compound 624]
[1]; Homo sapiens, COLO 205, 72 h
  IC50: 5 to 20 µM
Human eIF4E protein
  IC50: 0.1 to 0.5 µM

## Cc1cc(-c2cc(Cl)ccc2OCCn2c(C)nc3c(c2=O)C[C@@H](N2CCCC(C)[C@@H]2C(F)(F)F)CC32CC2)c2scc(C(=O)O)c2n1 (single isomer, unassigned) [Compound 625]
[1]; Homo sapiens, COLO 205, 72 h
  IC50: 5 to 20 µM
Human eIF4E protein
  IC50: 0.1 to 0.5 µM
